According to the NIST ThermoML archive (doi:10.1016/j.fluid.2007.11.005):

Settings: Liquid, Bellows volumetry

CCCCn1cc[n+](C)c1.F[B-](F)(F)F [1-butyl-3-methylimidazolium tetrafluoroborate]
mass density [kg/m3]
Settings	313.1 K	332.6 K	352.6 K	372.7 K	392.8 K	412.9 K	432.6 K	452.3 K	472.2 K
100 kPa	1191	–	–	–	–	–	–	–	–
10000 kPa	1195	1182	1168	1155	1142	1129	1116	1102	1090
20000 kPa	1200	1186	1173	1160	1148	1135	1122	1108	1096
30000 kPa	1204	1191	1178	1165	1153	1140	1127	1115	1102
40000 kPa	1208	1195	1182	1170	1158	1145	1133	1120	1108
50000 kPa	1212	1200	1187	1174	1163	1150	1138	1126	1114
60000 kPa	1216	1204	1191	1179	1167	1155	1143	1131	1119
70000 kPa	1220	1208	1195	1183	1172	1160	1148	1136	1124
80000 kPa	1224	1212	1199	1187	1176	1164	1152	1140	1129
90000 kPa	1227	1215	1203	1191	1180	1169	1157	1145	1134
100000 kPa	1231	1219	1207	1195	1184	1173	1161	1150	1139
110000 kPa	1234	1223	1211	1199	1188	1177	1165	1154	1143
120000 kPa	1238	1226	1214	1203	1192	1181	1170	1158	1147
130000 kPa	1241	1229	1218	1206	1195	1185	1173	1162	1152
140000 kPa	1244	1233	1221	1210	1199	1189	1177	1166	1156
150000 kPa	1248	1236	1225	1213	1203	1192	1181	1170	1160
160000 kPa	1251	1239	1228	1217	1206	1196	1185	1174	1164
170000 kPa	1254	1243	1231	1220	1210	1199	1188	1177	1167
180000 kPa	1257	1246	1234	1223	1213	1203	1192	1181	1171
190000 kPa	1260	1249	1237	1227	1216	1206	1195	1185	1175
200000 kPa	1263	1252	1241	1230	1220	1210	1199	1188	1178

CCCCCCCCOS(=O)(=O)[O-].CCCCn1cc[n+](C)c1 [1-butyl-3-methylimidazolium octyl sulfate]
mass density [kg/m3]
Settings	312.9 K	332.8 K	352.8 K	373 K	393.1 K	413 K	432.9 K	452.7 K	472.6 K
100 kPa	1060	–	–	–	–	–	–	–	–
10000 kPa	1065	1052	1040	1028	1016	1004	992	978	964
20000 kPa	1070	1058	1046	1034	1023	1011	999	985	972
30000 kPa	1075	1063	1051	1040	1028	1017	1006	992	980
40000 kPa	1080	1068	1056	1045	1034	1023	1012	999	987
50000 kPa	1084	1073	1061	1050	1039	1029	1018	1005	993
60000 kPa	1091	1077	1066	1055	1045	1034	1023	1011	999
70000 kPa	1093	1081	1070	1060	1049	1039	1029	1017	1005
80000 kPa	1097	1085	1075	1064	1054	1044	1034	1022	1011
90000 kPa	1096	1089	1079	1068	1058	1049	1038	1027	1016
100000 kPa	–	1093	1083	1073	1063	1053	1043	1032	1021
110000 kPa	–	1097	1087	1077	1067	1057	1048	1036	1026
120000 kPa	–	1101	1090	1080	1071	1062	1052	1041	1030
130000 kPa	–	1104	1094	1084	1075	1066	1056	1045	1035
140000 kPa	–	1107	1097	1088	1078	1069	1060	1049	1039
150000 kPa	–	1111	1101	1091	1082	1073	1064	1053	1043
160000 kPa	–	1114	1104	1095	1086	1077	1068	1057	1047
170000 kPa	–	1117	1107	1098	1089	1080	1071	1061	1051
180000 kPa	–	1120	1111	1102	1093	1084	1075	1065	1055
190000 kPa	–	1123	1114	1105	1096	1087	1078	1068	1059
200000 kPa	–	1126	1117	1108	1099	1091	1082	1072	1062
